In ChEMBL document CHEMBL1147790, “Synthetic analogues of the manzamenones and plakoridines which inhibit DNA polymerase” (Bioorg Med Chem Lett, 2006):

Key:
[1] = molecular target: T1, DNA polymerase alpha catalytic subunit (Homo sapiens, UniProt P09884); assay: Inhibition of DNA polymerase alpha
T1 sequence (P09884 whole entry): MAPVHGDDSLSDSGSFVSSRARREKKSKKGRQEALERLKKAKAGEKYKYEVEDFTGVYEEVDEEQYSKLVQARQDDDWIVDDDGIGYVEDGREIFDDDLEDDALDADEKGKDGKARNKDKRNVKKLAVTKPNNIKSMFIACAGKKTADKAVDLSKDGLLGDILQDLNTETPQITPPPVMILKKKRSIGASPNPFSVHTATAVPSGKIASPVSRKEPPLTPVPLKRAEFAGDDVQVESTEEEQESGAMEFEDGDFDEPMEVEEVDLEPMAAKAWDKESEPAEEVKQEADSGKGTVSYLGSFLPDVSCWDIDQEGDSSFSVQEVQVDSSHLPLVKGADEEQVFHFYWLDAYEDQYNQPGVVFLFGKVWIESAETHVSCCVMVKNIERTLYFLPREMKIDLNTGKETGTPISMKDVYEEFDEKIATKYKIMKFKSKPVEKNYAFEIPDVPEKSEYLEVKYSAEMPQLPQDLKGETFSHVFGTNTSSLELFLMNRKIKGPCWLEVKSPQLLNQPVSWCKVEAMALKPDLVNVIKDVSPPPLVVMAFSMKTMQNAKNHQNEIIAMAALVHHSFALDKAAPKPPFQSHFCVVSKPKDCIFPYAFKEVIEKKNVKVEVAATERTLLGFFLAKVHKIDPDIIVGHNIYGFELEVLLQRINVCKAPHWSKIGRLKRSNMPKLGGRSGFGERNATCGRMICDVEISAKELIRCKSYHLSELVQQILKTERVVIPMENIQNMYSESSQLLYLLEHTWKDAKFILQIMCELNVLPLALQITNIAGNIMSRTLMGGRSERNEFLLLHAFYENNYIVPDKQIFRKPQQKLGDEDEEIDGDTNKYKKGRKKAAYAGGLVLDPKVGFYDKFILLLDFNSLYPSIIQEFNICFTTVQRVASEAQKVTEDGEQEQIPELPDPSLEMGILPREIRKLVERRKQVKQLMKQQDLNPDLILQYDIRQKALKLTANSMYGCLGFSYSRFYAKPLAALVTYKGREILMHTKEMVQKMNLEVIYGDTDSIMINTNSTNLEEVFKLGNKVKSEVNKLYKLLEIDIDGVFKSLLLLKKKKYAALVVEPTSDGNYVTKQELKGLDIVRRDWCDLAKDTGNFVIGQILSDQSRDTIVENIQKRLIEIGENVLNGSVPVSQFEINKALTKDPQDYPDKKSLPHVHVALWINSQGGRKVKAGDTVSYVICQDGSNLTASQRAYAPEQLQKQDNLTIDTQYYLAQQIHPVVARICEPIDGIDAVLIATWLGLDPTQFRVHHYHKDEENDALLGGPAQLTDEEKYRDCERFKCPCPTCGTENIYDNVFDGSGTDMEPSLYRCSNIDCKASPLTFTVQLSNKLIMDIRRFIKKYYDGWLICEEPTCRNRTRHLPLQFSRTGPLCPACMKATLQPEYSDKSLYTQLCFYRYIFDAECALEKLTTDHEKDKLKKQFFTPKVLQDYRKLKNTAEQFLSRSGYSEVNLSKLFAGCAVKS

DNA polymerase beta = DNA polymerase beta (Homo sapiens, UniProt P06746); assay: Inhibition of DNA polymerase beta
[2] = molecular target: DNA nucleotidylexotransferase (Homo sapiens, UniProt P04053); assay: Inhibition of human TdT
Sequence of DNA nucleotidylexotransferase (P04053 whole entry): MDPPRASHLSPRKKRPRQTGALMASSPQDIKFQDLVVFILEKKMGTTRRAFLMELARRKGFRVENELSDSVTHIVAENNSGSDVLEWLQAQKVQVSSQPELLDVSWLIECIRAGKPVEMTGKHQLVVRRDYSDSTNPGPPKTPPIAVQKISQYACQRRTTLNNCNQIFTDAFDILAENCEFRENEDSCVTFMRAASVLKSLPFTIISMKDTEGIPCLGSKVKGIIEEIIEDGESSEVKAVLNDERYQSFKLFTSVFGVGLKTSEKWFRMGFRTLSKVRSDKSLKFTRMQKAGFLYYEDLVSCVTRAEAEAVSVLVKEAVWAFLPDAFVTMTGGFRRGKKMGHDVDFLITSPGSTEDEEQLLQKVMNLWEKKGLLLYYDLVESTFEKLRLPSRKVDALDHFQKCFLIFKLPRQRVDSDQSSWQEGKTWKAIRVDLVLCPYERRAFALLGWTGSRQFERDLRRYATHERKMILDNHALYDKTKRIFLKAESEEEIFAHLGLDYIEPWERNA

Row | Compound | IC50 [1] [µM] | IC50 (DNA polymerase beta) [µM] | IC50 [2] [µM]
1 | CCCCCCCCCCCCCCCCC1=C[C@H](C(=O)OC)[C@H]2C(=O)[C@]3(C(=O)OC)C[C@]3(CCCCCCCCCCCCCCCC)[C@H]2[C@H]1C(=O)OC | > 12.5 | > 12.5 | > 12.5
2 | CCCCCCCCCCCCCCCCC1=C[C@H](C(=O)NCCc2ccccc2)[C@H]2C(=O)C(C(=O)OC)=C(CCCCCCCCCCCCCCCC)[C@H]2[C@H]1C(=O)OC | 6.9 | 8.7 | > 12.5
3 | CCCCCCCCCCCCC(=O)/C=C1\[C@@H](O)[C@@H](C(=O)OC)[C@H](CC)N1Cc1ccccc1 | 19.7 | 27.1 | > 50
4 | CCC1=C[C@H](C(=O)O)[C@H]2C(=O)C(C(=O)OC)=C(CC)[C@H]2[C@H]1C(=O)OC | > 50 | > 50 | > 50
5 | CCCCCCCCCCCCC(=O)/C=C1\[C@H](O)[C@@H](C(=O)OC)[C@H](CC)N1CCc1ccccc1 | 25 | 22 | > 50
6 | CCCCCCCCCCCCC(=O)/C=C1\[C@H](O)[C@@H](C(=O)OC)[C@H](CC)N1Cc1ccccc1 | 19.9 | 30 | > 50
7 | CCCCCCCCCCCCC(=O)/C=C1\[C@H](O)[C@@H](C(=O)OC)[C@H](c2ccccc2)N1CCc1c[nH]c2ccccc12 | 21 | 10 | > 50
8 | CCCCCCCCCCCCCCCC[C@]1(O)C=C[C@H](O)[C@H]1C(=O)OC [PLAKEVULIN A] | 66 | 179 | 

Compounds with a lower IC50 [1], results first:

Row | IC50 [1] [µM] | IC50 (DNA polymerase beta) [µM] | IC50 [2] [µM] | Compound
9 | 1.9 | 2.3 | 8.6 | CCCCCCCCCCCCC1=C[C@H](C(=O)O)[C@H]2C(=O)C(C(=O)OC)=C(CCCCCCCCCCCC)[C@H]2[C@H]1C(=O)OC
10 | 3.3 | 4.4 | 20 | CCCCCCCCCCCCCCCCC1=C[C@H](C(=O)O)[C@H]2C(=O)C(C(=O)OC(C)C)=C(CCCCCCCCCCCCCCCC)[C@H]2[C@H]1C(=O)OC(C)C
11 | 3.5 | 2.4 | 48.4 | CCCCCCCCCCCCCCCCC1=C[C@H](C(=O)OCC)[C@H]2C(=O)C(C(=O)OC)=C(CCCCCCCCCCCCCCCC)[C@H]2[C@@H]1C(=O)OC
12 | 1.9 | 3.2 | 2.5 | CCCCCCCCCCCCCCCCC1=C[C@H](C(=O)O)[C@H]2C(=O)C(C(=O)OC)=C(CCCCCCCCCCCCCCCC)[C@H]2[C@H]1C(=O)OC
13 | 2.3 | 1.9 | 39.7 | CCCCCCCCCCCCCCCCC1=C[C@H](C(=O)OCC)[C@H]2C(=O)C(C(=O)OC)=C(CCCCCCCCCCCCCCCC)[C@H]2[C@H]1C(=O)OC
14 | 3.7 | 8.8 |  | CCCCCCCCCCCCCCCCC(=O)/C=C/C(=O)CC(=O)OC [E-ENEDIONE]
15 | 4.3 | 57 |  | CCCCCCCCCCCCCCCC[C@]1(O)C=CC(=O)[C@H]1C(=O)OC [UNTENONE A]
